Data reported in patent US6716829B2, “Aldosterone antagonist and cyclooxygenase-2 inhibitor combination therapy to prevent or treat inflammation-related cardiovascular disorders” (Pharmacia Corporation, priority 2000, dated 2004).
Where “and” joins values, the source holds several entries; their conditions need not be identical. Equal values may be shown once.

Tested on: aldosterone + salt treated uninephrectomized rats
Test: Assay C, further aldosterone infusion study: radiotelemetrized arterial (systolic) blood pressure
Format: in vivo, Male Sprague-Dawley rats
Details: for Systolic Blood Pressure (mmHg): mean ± SEM of values every 5 min over 24-hour period
Protocol: Assay C: Further In Vivo Aldosterone Infusion Study
The procedure of Assay B was expanded upon in a further study. […] Myocardial tissue from animals in each treatment group was examined after 7, 14, or 30 days of treatment.
Male Sprague-Dawley rats, weighing 230 to 250 g, (Harlan Sprague-Dawley Industries, Indianapolis, IN) were housed in a room 12-hours light/12-hours dark daily cycle at an ambient temperature of 22±1° C. (n=96). Animals were allowed one week to adjust after arrival and had free access to TEKLAD 22/5 rodent diet (Harlan TEKLAD, Madison, Wis.) and tap water until the initiation of the experiment.
Potassium chloride supplementation was added to the saline solution in order to prevent the potential hypokalemia associated with aldosterone excess.
At the time of the surgery, an Alzet 2002 osmotic minipump (Alza Corp., Palo Alto, Calif.) containing either vehicle (9% ethanol/87% propylene glycol/4% dH2O) or 1.0 mg/mL d-aldosterone (Sigma Chemical, St. Louis, Mo.) was inserted subcutaneously at the nape of the neck. Aldosterone was administered at a dose of 0.75 µg/hour. […] Animals were sacrificed from each group (n=8-13) after 7, 14, or 30 days of treatment.
Animals to be sacrificed after 7 or 14 days of treatment were uninephrectomized and implanted with an Alzet minipump. Animals treated for 30 days were uninephrectomized, fitted for Alzet minipumps, and implanted with radio telemetry units (model #TA11PA-C40, Data Sciences Inc., St. Paul, Minn.) according to the following procedure. Animals were anesthetized with 5% isoflurane (SOLVAY Animal Health Inc., Mendota Heights, Minn.), which was delivered in O2 using a VMS anesthesia instrument (Matrix Medical, Inc., Orchard Park, N.Y.). Anesthesia was maintained with 1-2% isoflurane throughout the surgical procedure. The surgery site was clipped, scrubbed with nolvasan, and sprayed with betadine. A rostral-caudal incision was made through the skin from the base of the rib cage to the pubic region using a #11 scalpel blade. A second incision was made through the muscles of the abdominal wall to expose the peritoneal cavity. The […], renal artery and vein of the left kidney were isolated, tied off with 4-0 silk, and the kidney excised and discarded. Organs were carefully displaced with tissue retractors in order to expose the abdominal aorta. A 1.5 cm segment just rostral to the bifurcation of the abdominal aorta into the iliac arteries was cleared of excessive connective tissue and 4-0 silk was used to make an anchor adjacent to the aorta. A microvascular clip was then placed at both ends of the cleaned region to stop excessive blood flow. Using a bent, 21 gauge needle, the abdominal aorta was penetrated. The cannula of the radio telemetry unit was inserted and stabilized in the aorta using the 4-0 silk anchor. Organs were repositioned and the telemetry unit was placed over the organs. Using a non-interrupted suture pattern with 4-0 silk, the abdominal wall was closed, and the skin was subsequently closed using a 4-0 silk in an interrupted suture pattern. Animals were injected around the sutures with 100 μL of the anesthetic Marcaine HCl (Sanofi Winthrop Pharmaceuticals, New York, N.Y.) and given an injection (i.m.) of the antibiotic Mandol (Eli Lilly & Co., Indianapolis, Ind.). Post-operative care included monitoring the animals on a heating pad during recovery from anesthesia until sternal recumbency was reestablished. Animals were monitored daily for signs of distress and infection at the surgical site. Animals displaying continued discomfort after surgery were treated with 0.1-0.5 mg/kg, s.c. Buphrenorphine (Rickett & Colman Pharmaceuticals, Inc. Richmond, Va.). Animals were then placed on tap water and TEKLAD 22/5 rodent diet (Harlan TEKLAD, Madison, Wis.).
Radiotelemetrized arterial blood pressure was calculated with the […]

Compound: COC(=O)[C@@H]1CC2=CC(=O)CC[C@]2(C)[C@@]23O[C@@H]2C[C@@]2(C)[C@@H](CC[C@@]24CCC(=O)O4)[C@H]13 [Eplerenone]
- Systolic Blood Pressure (Day 3, individual rats, 30-day protocol, listed as Eplerenone + aldosterone + salt): 123 mmHg and 126 mmHg (2×) and 130 mmHg (2×) and 128 mmHg and 119 mmHg and 125 mmHg (2×)
- Systolic Blood Pressure (mmHg) (Day 3): 126 ± 1 mmHg
- Systolic Blood Pressure (Day 4, individual rats, 30-day protocol, listed as Eplerenone + aldosterone + salt): 130 mmHg (2×) and 128 mmHg (2×) and 131 mmHg and 139 mmHg and 122 mmHg and 126 mmHg and 134 mmHg
- Systolic Blood Pressure (mmHg) (Day 4): 130 ± 2 mmHg
- Systolic Blood Pressure (Day 5, individual rats, 30-day protocol, listed as Eplerenone + aldosterone + salt): 132 mmHg (2×) and 134 mmHg and 143 mmHg and 123 mmHg and 127 mmHg (2×) and 133 mmHg and 142 mmHg
- Systolic Blood Pressure (mmHg) (Day 5): 132 ± 2 mmHg
- Systolic Blood Pressure (Day 6, individual rats, 30-day protocol, listed as Eplerenone + aldosterone + salt): 133 mmHg (2×) and 142 mmHg and 136 mmHg and 152 mmHg and 126 mmHg and 137 mmHg and 140 mmHg and 150 mmHg
- Systolic Blood Pressure (mmHg) (Day 6): 139 ± 3 mmHg
- Systolic Blood Pressure (Day 7, individual rats, 30-day protocol, listed as Eplerenone + aldosterone + salt): 140 mmHg (3×) and 142 mmHg and 143 mmHg and 156 mmHg (2×) and 132 mmHg and 141 mmHg
- Systolic Blood Pressure (mmHg) (Day 7): 143 ± 3 mmHg
- Systolic Blood Pressure (Day 8, individual rats, 30-day protocol, listed as Eplerenone + aldosterone + salt): 142 mmHg and 146 mmHg and 141 mmHg and 156 mmHg and 131 mmHg and 138 mmHg (2×) and 139 mmHg and 152 mmHg
- Systolic Blood Pressure (mmHg) (Day 8): 142 ± 3 mmHg
- Systolic Blood Pressure (Day 9, individual rats, 30-day protocol, listed as Eplerenone + aldosterone + salt): 142 mmHg and 146 mmHg and 139 mmHg and 154 mmHg and 130 mmHg and 133 mmHg and 137 mmHg and 141 mmHg and 151 mmHg
- Systolic Blood Pressure (mmHg) (Day 9): 142 ± 3 mmHg
- Systolic Blood Pressure (Day 10, individual rats, 30-day protocol, listed as Eplerenone + aldosterone + salt): 143 mmHg (2×) and 138 mmHg and 158 mmHg and 134 mmHg and 136 mmHg and 139 mmHg and 142 mmHg and 149 mmHg
- Systolic Blood Pressure (mmHg) (Day 10): 142 ± 2 mmHg
- Systolic Blood Pressure (Day 11, individual rats, 30-day protocol, listed as Eplerenone + aldosterone + salt): 145 mmHg (2×) and 139 mmHg and 138 mmHg and 160 mmHg and 136 mmHg and 137 mmHg and 140 mmHg and 152 mmHg
- Systolic Blood Pressure (mmHg) (Day 11): 143 ± 3 mmHg
- Systolic Blood Pressure (Day 12, individual rats, 30-day protocol, listed as Eplerenone + aldosterone + salt): 147 mmHg and 140 mmHg (2×) and 139 mmHg (2×) and 165 mmHg and 137 mmHg and 148 mmHg and 154 mmHg
- Systolic Blood Pressure (mmHg) (Day 12): 145 ± 3 mmHg
- Systolic Blood Pressure (Day 13, individual rats, 30-day protocol, listed as Eplerenone + aldosterone + salt): 148 mmHg and 144 mmHg and 137 mmHg and 170 mmHg and 140 mmHg (3×) and 149 mmHg
- Systolic Blood Pressure (mmHg) (Day 13): 147 ± 3 mmHg
- Systolic Blood Pressure (mmHg) (Day 14): 150 ± 4 mmHg
- Systolic Blood Pressure (mmHg) (Day 15): 148 ± 4 mmHg
- Systolic Blood Pressure (mmHg) (Day 16): 150 ± 4 mmHg
- Systolic Blood Pressure (mmHg) (Day 17): 154 ± 5 mmHg
- Systolic Blood Pressure (mmHg) (Day 18): 157 ± 5 mmHg
- Systolic Blood Pressure (mmHg) (Day 19): 160 ± 5 mmHg
- Systolic Blood Pressure (mmHg) (Day 20): 160 ± 5 mmHg
- Systolic Blood Pressure (mmHg) (Day 21): 165 ± 6 mmHg
- Systolic Blood Pressure (mmHg) (Day 22): 167 ± 6 mmHg
- Systolic Blood Pressure (mmHg) (Day 23): 172 ± 6 mmHg
- Systolic Blood Pressure (mmHg) (Day 25): 176 ± 6 mmHg
- Systolic Blood Pressure (mmHg) (Day 26): 180 ± 7 mmHg
- Systolic Blood Pressure (aldosterone + salt, uninephrectomized rats, up to 30 days, eplerenone 100 mg/kg/day): significantly reduced at days 8-30
